Several values for one entry are separate records, joined by “and”; a condition that tells them apart may be missing. Equal values may be shown once.
System: 422866-222-R5-J1-PDC spheroids with HUVEC/MSC, viability
Test: Anticancer human tumor 422866-222-R5-J1-PDC patient-derived pancreatic adenocarcinoma cell line growth inhibition [GQUAD]
Conditions: for viability, T/C: stronger effect = lower value
Text: DNA G-quadruplex Stabilizer Agents in Combinations in Complex Spheroids
A high-throughput screen of multi-cell type tumor spheroids was designed to identify active combinations of DNA G-quadruplex stabilizer agents and targeted small molecules. Complex spheroids include a stromal component modeled by human endothelial cells (HUVEC) and fibroblasts modeled by human mesenchymal stem cells (MSCs). The concentration ranges selected for each drug and investigational agent were based upon clinically achievable concentrations if the clinical Cmax of the agent was known.
Compounds. The drugs and investigational agents: pidnarulex (CX-5461; NSC782164), APTO-253 (NSC789042), BRACO-19 (NSC847499), peposertib (NSC802822), ceralasertib (NSC780249), elimusertib (NSC800525), camonsertib (NSC841442), AZD-1390 (NSC803789), olaparib (NSC753686), talazoparib (NSC767125), ART-558 (NSC835418), sotorasib (NSC818433), MRTX-1133 (NSC836407), SN-38 (NSC673596), topotecan (NSC609699), etoposide (NSC141540), doxorubicin (NSC123127), gemcitabine (NSC613327), 5-fluorouracil (NSC19893), paclitaxel (NSC125973), vemurafenib (NSC761431), panobinostat (NSC761190), R-306465 (JNJ-16241199; NSC773264), adavosertib (NSC754352), TP-3654 (NSC805149), carboplatin (NSC241240), KSQ-4279 (NSC840948), and staurosporine (NSC755774) were obtained from the National Cancer Institute (NCI) Developmental Therapeutics Program Chemical Repository (34). The FDA-approved anticancer drug set is available from the NCI Developmental Therapeutics Program. […] The stock solutions were prepared in dimethyl sulfoxide (DMSO, Sigma-Aldrich, St. Louis, MO, cat. D2650) at 800-fold the tested concentration and stored at -70 degrees C prior to their use. All drugs and investigational agents were tested over a range starting from a high concentration at or near the clinical Cmax and decreasing in half-log increments. If the clinical Cmax for an agent had not been determined, the highest concentration tested was 10 microM.
2.3 Cell Culture. All cells were maintained in an incubator at 37 degrees C and 5% CO2 with 95% humidity. The PDC lines were cultured according to standard operating procedures established by the NCI PDMR. All PDCs were thawed and cultured in Matrigel-coated flasks prepared with a working solution of 1X Ham's F-12 nutrient mix, without supplementation (Invitrogen, cat. 11765054), 100 U/mL penicillin-streptomycin (Invitrogen, cat. 15140122), and 2.5% Matrigel (Corning Inc., cat. 354248) for the first three passages. The 857933-349-R-J2-PDC line was cultured in 6C/Colon 1B media, which includes advanced DMEM/F-12 (Thermo Fisher Scientific, cat. 12634028), 10 mM HEPES (Thermo Fisher Scientific, cat. 15630080), 1X GlutaMAX supplement (Thermo Fisher Scientific, cat. 35050061), 0.1 mg/mL primocin (InvivoGen, cat. ant-pm-2), 10% defined fetal bovine serum, heat inactivated (HyClone Laboratories Inc., cat. SH30070.03HI), 50% L-WRN conditioned media (ATCC, cat. CRL-3276), 1.25 mM N-Acetyl-L-cysteine (Sigma-Aldrich, cat. A9165), 10 mM nicotinamide (Sigma-Aldrich, cat. N0636), 1X B-27 supplement (Thermo Fisher Scientific, cat. 17504044), 1X N-2 supplement (Thermo Fisher Scientific, cat. 17502048), 10 microM Y-27632 dihydrochloride (Tocris Bioscience, cat. 1254), and 50 ng/mL human EGF recombinant protein (Thermo Fisher Scientific, cat. PHG0311). The 485176-168-R4-J1-PDC line was cultured in Panc media, which includes all 6C/Colon 1B media components plus 100 ng/mL human FGF-10 (Thermo Fisher Scientific, cat. 100-26), 500 nM SB-431542 (Selleckchem, cat. S1067), and gastrin (Tocris, cat. 3006).
[…]
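Further: spheroids exposed to compounds for seven days before reading.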
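Wherever viability, T/C is given: percent viability relative to DMSO vehicle control taken as 100%.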

## CCCS(=O)(=O)Nc1ccc(F)c(C(=O)c2c[nH]c3ncc(-c4ccc(Cl)cc4)cc23)c1F + CN(C)c1ccc(Nc2c3ccc(NC(=O)CCN4CCCC4)cc3nc3cc(NC(=O)CCN4CCCC4)ccc23)cc1
Curve of first compound, second compound 0.0316 µM
  IC50: > 10000 nM
Curve of first compound, second compound 0.1 µM
  IC50: > 10000 nM
Curve of first compound, second compound 0.316 µM
  IC50: > 10000 nM
Curve of first compound, second compound 1 µM
  IC50: > 10000 nM
Curve of first compound, second compound 3.16 µM
  IC50: > 10000 nM
Curve of first compound, second compound 10 µM
  IC50: > 10000 nM
Second compound 0.0316 µM, first compound 0.0316 µM
  viability, T/C: 95.8%
Second compound 0.0316 µM, first compound 0.1 µM
  viability, T/C: 117%
Second compound 0.0316 µM, first compound 0.316 µM
  viability, T/C: 121%
Second compound 0.0316 µM, first compound 1 µM
  viability, T/C: 136%
Second compound 0.0316 µM, first compound 3.16 µM
  viability, T/C: 164%
Second compound 0.0316 µM, first compound 10 µM
  viability, T/C: 130%
Second compound 0.1 µM, first compound 0.0316 µM
  viability, T/C: 112%
Second compound 0.1 µM, first compound 0.1 µM
  viability, T/C: 91.6%
Second compound 0.1 µM, first compound 0.316 µM
  viability, T/C: 112%
Second compound 0.1 µM, first compound 1 µM
  viability, T/C: 137%
Second compound 0.1 µM, first compound 3.16 µM
  viability, T/C: 203%
Second compound 0.1 µM, first compound 10 µM
  viability, T/C: 128%
Second compound 0.316 µM, first compound 0.0316 µM
  viability, T/C: 98%
Second compound 0.316 µM, first compound 0.1 µM
  viability, T/C: 108%
Second compound 0.316 µM, first compound 0.316 µM
  viability, T/C: 122%
Second compound 0.316 µM, first compound 1 µM
  viability, T/C: 143%
Second compound 0.316 µM, first compound 3.16 µM
  viability, T/C: 158%
Second compound 0.316 µM, first compound 10 µM
  viability, T/C: 127%
Second compound 1 µM, first compound 0.0316 µM
  viability, T/C: 74.3%
Second compound 1 µM, first compound 0.1 µM
  viability, T/C: 88.3%
Second compound 1 µM, first compound 0.316 µM
  viability, T/C: 113%
Second compound 1 µM, first compound 1 µM
  viability, T/C: 112%
Second compound 1 µM, first compound 3.16 µM
  viability, T/C: 196%
Second compound 1 µM, first compound 10 µM
  viability, T/C: 130%
Second compound 3.16 µM, first compound 0.0316 µM
  viability, T/C: 83.8%
Second compound 3.16 µM, first compound 0.1 µM
  viability, T/C: 97.7%
Second compound 3.16 µM, first compound 0.316 µM
  viability, T/C: 97%
Second compound 3.16 µM, first compound 1 µM
  viability, T/C: 157%
Second compound 3.16 µM, first compound 3.16 µM
  viability, T/C: 189%
Second compound 3.16 µM, first compound 10 µM
  viability, T/C: 154%
Second compound 10 µM, first compound 0.0316 µM
  viability, T/C: 90.3%
Second compound 10 µM, first compound 0.1 µM
  viability, T/C: 90.2%
Second compound 10 µM, first compound 0.316 µM
  viability, T/C: 123%
Second compound 10 µM, first compound 1 µM
  viability, T/C: 131%
Second compound 10 µM, first compound 3.16 µM
  viability, T/C: 129%
Second compound 10 µM, first compound 10 µM
  viability, T/C: 153%

## COc1cc(C2c3cc4c(cc3C(OC3OC5COC(C)OC5C(O)C3O)C3COC(=O)C23)OCO4)cc(OC)c1O (stereo not given)
Compound 0.0316 µM
  viability, T/C: 102% and 106% and 103%
Compound 0.1 µM
  viability, T/C: 84% and 84.1% and 90.4%
Compound 0.316 µM
  viability, T/C: 72.1% and 81.7% and 80.7%
Compound 1 µM
  viability, T/C: 62.7% and 51.7% and 55.9%
Compound 3.16 µM
  viability, T/C: 40.4% and 40.3% and 45%
Compound 10 µM
  viability, T/C: 38% and 35.9% and 40.2%
Curve of compound
  IC50: 2160 nM and 1550 nM and 2000 nM

## CC1COCCN1c1cc(C2(S(C)(=N)=O)CC2)nc(-c2ccnc3[nH]ccc23)n1 (stereo not given)
Compound 0.0316 µM
  viability, T/C: 81.8% and 101% and 93.1%
Compound 0.1 µM
  viability, T/C: 90.2% and 107% and 98.3%
Compound 0.316 µM
  viability, T/C: 105% and 97.1% and 114%
Compound 1 µM
  viability, T/C: 70.9% and 82.1% and 91.5%
Compound 3.16 µM
  viability, T/C: 43% and 44.8% and 50.8%
Compound 10 µM
  viability, T/C: 38% and 39.5% and 36.4%
Curve of compound
  IC50: 2210 nM and 2770 nM and 3240 nM

## Nc1ccn(C2OC(CO)C(O)C2(F)F)c(=O)n1 (stereo not given)
Compound 0.0316 µM
  viability, T/C: 87.9% and 88.9% and 93.4%
Compound 0.1 µM
  viability, T/C: 66% and 76.8% and 74.1%
Compound 0.316 µM
  viability, T/C: 61.7% and 70.3% and 61.1%
Compound 1 µM
  viability, T/C: 51.8% and 55.9% and 40%
Compound 3.16 µM
  viability, T/C: 41.4% and 48.6% and 40%
Compound 10 µM
  viability, T/C: 40.8% and 39.7% and 38%
Curve of compound
  IC50: 993 nM and 2480 nM and 598 nM

## O=C(c1cc(Cc2n[nH]c(=O)c3ccccc23)ccc1F)N1CCN(C(=O)C2CC2)CC1
Compound 0.0316 µM
  viability, T/C: 95.7% and 90.6% and 98.8%
Compound 0.1 µM
  viability, T/C: 89.7% and 88.2% and 93.5%
Compound 0.316 µM
  viability, T/C: 95.3% and 90.9% and 94%
Compound 1 µM
  viability, T/C: 81.4% and 92.8% and 99.6%
Compound 3.16 µM
  viability, T/C: 74% and 86.8% and 84%
Compound 10 µM
  viability, T/C: 79.3% and 66.8% and 59%
Curve of compound
  IC50: > 10000 nM
